PubChem BioAssay (NCI)
Values joined by “and” are separate entries in the source; they are usually repeats but may differ in a detail not shown here. Equal entries are not always repeated.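 In this assay, cells in 96-well plates receive the compound at five concentrations for 48 hours. Endpoints are linearly interpolated between the surrounding concentrations. GI50 is the concentration that inhibits growth by half. TGI denotes the concentration required for complete inhibition of growth.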

Key:
Assay in all cases: inhibition of tumour cell growth, NCI panel, 48 h
[1] = test system: 786-0 renal
[2] = test system: A498 renal
[3] = test system: HCC-2998 colon
[4] = test system: IGROV1 ovarian
[5] = test system: KM12 colon
[6] = test system: M14 melanoma
[7] = test system: OVCAR-4 ovarian
[8] = test system: RPMI-8226 leukemia
[9] = test system: TK-10 renal
[10] = test system: UO-31 renal

Row | Structure (SMILES) | TGI [1] | TGI [2] | TGI [3] | TGI [4] | TGI [5] | TGI [6] | TGI [7] | TGI [8] | TGI [9] | TGI [10] | GI50 [3] | GI50 [4] | GI50 [5] | GI50 [6] | GI50 [8] | GI50 [10]
1 | CCOC(=O)/C=C(\C(=O)OCC)n1cc(C)c(=O)n(Cc2cnnn2COCCOC(C)=O)c1=O | 14.9 µM | 35.9 µM | 30.7 µM | 21.8 µM | 31.8 µM | 57.5 µM | 32 µM | 18.5 µM | 10.8 µM | 27.5 µM |  |  |  |  |  | 
2 | C/C(=N\O)c1cccc[n+]1Cc1ccccc1 | > 100 µM | > 100 µM | > 100 µM | > 100 µM | > 100 µM | > 100 µM | > 100 µM | > 100 µM | > 100 µM | > 100 µM |  |  |  |  |  | 
3 | O=C(SCc1cccc2ccccc12)c1ccc(Cl)cc1 | > 100 µM | > 100 µM | > 100 µM | > 100 µM | > 100 µM | > 100 µM | > 100 µM | > 100 µM | > 100 µM | > 100 µM |  |  |  |  |  | 
4 | CN(CCc1ccccn1)C(=S)N/N=C(\c1ccccc1)c1ccccn1 | 2.68 µM | 0.942 µM | 5.39 µM | 1.57 µM | 2.37 µM | 8.43 µM | 2.23 µM | 2.14 µM | 3.27 µM | 1.83 µM |  |  |  |  |  | 
5 | O=C(NO)NCCCl | > 100 µM | > 100 µM | > 100 µM | > 100 µM | > 100 µM | > 100 µM | > 100 µM | > 100 µM | > 100 µM | > 100 µM |  |  |  |  |  | 
6 | O=C(/C(=C\I)c1ccccc1)c1ccccc1 | 14.6 µM | 30.3 µM | 16.1 µM | 26.3 µM | 8.09 µM | 30.5 µM | 17.7 µM | > 21.2 µM | 29.8 µM | 20.2 µM |  |  |  |  |  | 
7 | COc1ccccc1C(=O)NCC1CCCN2CCCCC12 (stereo not given) | > 100 µM | > 100 µM | > 100 µM | > 100 µM | > 100 µM | > 100 µM | > 100 µM | > 100 µM | > 100 µM | > 100 µM |  |  |  |  |  | 
8 | CC(=O)OCC1OC(n2c(Br)nc3c2c(=O)n(C)c(=O)n3C)C(OC(C)=O)C1OC(C)=O (stereo not given) | > 100 µM | > 100 µM | > 100 µM | > 100 µM | > 100 µM | > 100 µM | 83.6 µM | 95.6 µM | > 100 µM | > 100 µM |  |  |  |  |  | 
9 | N/C1=C/C(=O)NC(=O)c2c(c3ccccc3oc2=O)C1 | > 100 µM | > 100 µM | > 100 µM | > 100 µM | > 100 µM | > 100 µM | > 100 µM | > 100 µM | > 100 µM | > 100 µM |  |  |  |  |  | 
10 | C(=Nc1ccc(-c2nc3ccccc3s2)cc1)c1ccc[nH]1 | 52.4 µM | 36.5 µM | 31.9 µM | 40.6 µM | 71.3 µM | 34.2 µM | 89.7 µM | 55.9 µM | 64.2 µM | 53.5 µM |  |  |  |  |  | 
11 | Cc1cccc(CC(Cc2ccc(C)cc2C(=O)O)C(=O)O)c1 (stereo not given) | > 100 µM | > 100 µM | > 100 µM | > 100 µM | > 100 µM | > 100 µM | > 100 µM | > 100 µM | > 100 µM | > 100 µM |  |  |  |  |  | 
12 | C=C1C(=O)O[C@H]2C[C@@H]1[C@@H](O)[C@H](O)[C@@H](C)CCCC(C)=CCC[C@@]2(C)O | 52 µM | > 100 µM | 60.5 µM | > 100 µM | > 100 µM | 29.8 µM | 83.9 µM | 45.3 µM | 30.4 µM | 28.5 µM |  |  |  |  |  | 
13 | NCCN1C(=O)c2ccccc2C1c1ccc(Cl)cc1 (stereo not given) | > 100 µM | > 100 µM | > 100 µM | > 100 µM | > 100 µM | > 100 µM | > 100 µM | > 100 µM | > 100 µM | > 100 µM |  |  |  |  |  | 
14 | O=c1[nH]c(NCc2ccc(Cl)cc2)nc2nc[nH]c12 | > 100 µM | > 100 µM | > 100 µM | > 100 µM | > 100 µM | > 100 µM | > 100 µM | > 100 µM | > 100 µM | > 100 µM |  |  |  |  |  | 
15 | CN(C)c1ccc(/C=C/c2sc3ccccc3[n+]2C)cc1 | 14.9 µM and > 100 µM | 26.2 µM and 32.7 µM | 25.7 µM and 17.3 µM | 19.7 µM and 15.3 µM | > 25.2 µM and 5.26 µM | 16.2 µM and 3.29 µM | 10.2 µM and 9.3 µM | 0.719 µM and 4.19 µM | 16 µM and 24.9 µM |  | 11.2 µM and 1.48 µM | 4.29 µM and 1.21 µM | 0.621 µM | 3.66 µM and 0.427 µM | 0.355 µM | 2.91 µM
16 | O=c1c(Cc2ccc(Cl)cc2)nnc2sc(-c3ccc(-c4ccc(Cl)cc4Cl)o3)nn12 | > 100 µM | > 100 µM | > 100 µM | > 100 µM | > 100 µM | > 100 µM | > 100 µM | > 100 µM | > 100 µM | > 100 µM |  |  |  |  |  | 
17 | C/C(N=NS(=O)(=O)c1ccc([N+](=O)[O-])cc1)=C1\C=CC=CN1O | > 100 µM | > 100 µM | > 100 µM | > 100 µM | > 100 µM | > 100 µM | > 100 µM | > 100 µM | > 100 µM | > 100 µM |  |  |  |  |  | 
18 | CC1(C)COC2=C(C1)C(=O)c1ccccc1C2=O | 3.29 µM | 3.56 µM | 3.08 µM | 3.45 µM | 3.23 µM | 2.96 µM | 2.9 µM | 4.45 µM | 3.19 µM | 2.21 µM |  |  |  |  |  | 
19 | COC1(CC[C@@H](C)COC2OC(CO)C(O)C(O)C2O)O[C@H]2C[C@H]3[C@@H]4CC=C5C[C@@H](OC6OC(CO)C(O)C(OC7OC(CO)C(O)C(O)C7O)C6OC6OC(C)C(O)C(O)C6O)CC[C@]5(C)[C@H]4CC[C@]3(C)[C@H]2[C@@H]1C (stereo not given in full) | 8.33 µM | 26.9 µM | 10.6 µM | 19.8 µM | 4.36 µM | 5.41 µM | 28.4 µM | > 88.3 µM | 43.8 µM | 9.53 µM |  |  |  |  |  | 
